The subject of data set [1] is Atox1-WD4 interaction (eCALWY3 probe). Nature of the data set: eCALWY3 FRET assay of Atox1-WD4 interaction. Type of data set: biochemical, human. The following applies: for Fluorescence Intensity Ratio (Citrine/Cerulean): 100 μM compound added; for Recover %: 100 μM compound, recovery of FRET ratio towards eCALWY3 only. As for the experimental part: FRET for the eCALWY3 was performed in 150 mM HEPES, 100 mM NaCl, 1 mM DTT and 10% glycerol (pH 7.1). Zn^2+ titration was done by mixing 0.9 mM of Zn^2+ from a slightly acidic stock solution of ZnCl2 with buffering systems consisting of 1 mM DHPTA. The effects of varying concentrations of the small molecules were evaluated. Fluorescence spectra and emission anisotropy were recorded on a Varian Cary Eclipse spectrometer.

Data set [2] relates to human PIG1 cell and human dermal fibroblast cell. As to conditions: 72 hours, highest concentration tested 10 μM.
Data set [3] concerns Lung cancer H1299 cell, Head and neck cancer 212LN cell, Breast cancer MB231 cell. In words: Cancer cell viability / proliferation. The following applies: H1299, 212LN, MB231; increasing doses.
The subject of data set [4] is AMPK phosphorylation and ACC1 phosphorylation. Nature of the data set: Western blot of AMPK and ACC1 phosphorylation. Type of data set: cell-based. The following applies: co-treatment with compound 50.
The subject of data set [5] is H1299 cells. Nature of the data set: ROS production (DCFH-DA). As to conditions: co-treatment with compound 50. Type of data set: cell-based. As for the experimental part: (§1) Cells were treated with DMSO and DC_AC50 for 12 h and ROS generation was detected with DCFH-DA. Cells were incubated with 10 μM of DCFH-DA for 30 min at 37° C., washed twice with PBS, and immediately analyzed by a FACScan flow cytometer. The antioxidant NAC was treated with 3 mM concentration.

Data set [6] has as its system K562 cells. In words: ROS production (DCFH-DA). Type of data set: cell-based. As to conditions: co-treatment with compound 50. As for the experimental part: as §1
In data set [7] the test system is H1299 cancer cells. Nature of the data set: 8-OHdG levels by triple quadrupole mass spectrometry. Type of data set: cell-based. The following applies: NAC 3 mM. The text has this:
FIG. 20A illustrates 8-OHdG levels in H1299 cancer cells determined by triple quadrupole mass spectrometry analysis. […] .

The subject of data set [8] is K562 cancer cells. The description is as above. Type of data set: cell-based. The following applies: NAC 3 mM. The text has this: FIG. 20B illustrates 8-OHdG levels in K562 cancer cells determined by triple quadrupole mass spectrometry analysis. […] .
For data set [9], the system named is cell proliferation. Nature of the data set: Rescue of cell proliferation inhibition induced by compound 50. Type of data set: cell-based. As to conditions: co-treatment with compound 50.
Data set [10] concerns tumor growth. As to conditions: TM-induced copper deficiency; cited from earlier work.
The test system of data set [11] is H1299 cells. In words: 14C-lipid synthesis from 14C-glucose. Type of data set: cell-based. As to conditions: co-treatment with compound 50.

Take `CCN1CCc2nc3sc(C(=O)Nc4ccccc4OC(F)(F)F)c(N)c3cc2C1` [Compound 2, 3-amino-6-ethyl-N-(2-(trifluoromethoxy)phenyl)-5,6,7,8-tetrahydro-thieno[2,3-b][1,6]naphthyridine-2-carboxamide]: in data set [1], the “Fluorescence Intensity Ratio (Citrine/Cerulean)” value is “eCALWY3 only: 3.54 100 μM compound added: 3.05” and the Recover % is 86%. Also, in data set [2], the “viability of normal cells” value is reported as “not harmful”. Moreover, the “cell death in cancer cells” value in data set [3] is listed as “induce cell death”.

Turning to `Nc1c(C(=O)NCC(c2ccccc2)c2ccccc2)sc2nc(-c3ccncc3)cc(C(F)(F)F)c12` [Compound 30], in data set [1], the “Fluorescence Intensity Ratio (Citrine/Cerulean)” value is “eCALWY3 only: 2.27 100 μM compound added: 1.53” and the Recover % amounted to 67%. In addition, the “viability of normal cells” value in data set [2] is “not harmful”. In addition, the “cell death in cancer cells” value in data set [3] was “induce cell death”.

With `COc1cccc(-c2ccc3c(N)c(C(=O)Nc4cc(OC)ccc4Cl)sc3n2)c1` [Compound 49, 3-amino-N-(2-chloro-5-methoxyphenyl)-6-(3-methoxyphenyl)thieno[2,3-b]pyridine-2-carboxamide], in data set [1], the “Fluorescence Intensity Ratio (Citrine/Cerulean)” value is recorded as “eCALWY3 only: 2.24 100 μM compound added: 1.89” and the Recover % came out at 84%. Also, the “viability of normal cells” value in [2] was “not harmful”. The “cell death in cancer cells” value in [3] is recorded as “induce cell death”.

For `COc1ccc2cc3c(N)c(C(=O)Nc4ccc(C(C)=O)cc4)sc3nc2c1` [Compound 61, N-(4-acetylphenyl)-3-amino-7-methoxythieno[2,3-b]quinoline-2-carboxamide], in data set [1], the “Fluorescence Intensity Ratio (Citrine/Cerulean)” value was “eCALWY3 only: 3.68 100 μM compound added: 2.72” and the Recover % came to 74%. Also, in data set [2], the “viability of normal cells” value is “not harmful”. The “cell death in cancer cells” value in data set [3] is “induce cell death”.

For `Cc1cc(NC(=O)c2sc3nc(-c4ccccc4)cc(C(F)(F)F)c3c2N)no1` [Compound 71, 3-amino-N-(5-methylisoxazol-3-yl)-6-phenyl-4-(trifluoromethyl)thieno[2,3-b]pyridine-2-carboxamide], in data set [1], the “Fluorescence Intensity Ratio (Citrine/Cerulean)” value is recorded as “eCALWY3 only: 2.25 100 μM compound added: 1.86” and the Recover % came to 83%. Moreover, in data set [2], the “viability of normal cells” value is on record as “toxic to normal cells”.

Consider `CC(=O)N[C@@H](CS)C(=O)O` [NAC, N-acetyl-L-cysteine, reference compound], for which, in [4], the “rescue of AMPK and ACC1 phosphorylation increased by compound 50” value was “could not be rescued”. Moreover, the “rescue of cellular ROS levels increased by compound 50” value in data set [5] and in data set [6] was “almost completely rescued” each time. The “rescue of 8-OHdG levels increased by compound 50” value in data set [7] and in data set [8] was “rescued” throughout. Also, the “rescue of cell proliferation inhibited by compound 50” value in data set [9] was “partially rescued”.

For `[SH-].[SH-].[S]=[Mo]=[S]` [TM, tetrathiomolybdate], the tumor growth result in [10] is given as “significantly inhibited tumor growth”.

As for `c1cc(-c2cnn3cc(-c4ccc(OCCN5CCCCC5)cc4)cnc23)ccn1` [compound C, reference compound], the “rescue of lipid synthesis decreased by compound 50” value in [11] is recorded as “recovered lipid synthesis”. Besides, the “rescue of AMPK and ACC1 phosphorylation increased by compound 50” value in data set [4] is reported as “almost completely reversed”. Further, the “rescue of cell proliferation inhibited by compound 50” value in data set [9] is “partially rescued”.

These data come from US20160074373A1, “METHODS AND COMPOSITIONS FOR INHIBITING HUMAN COPPER TRAFFICKING PROTEINS ATOX1 AND CCS” (SHANGHAI INSTITUTE OF MATERIA MEDICA, CHINESE ACADEMY OF …, priority 2013, published 2016).
